# How the values were obtained:
# Test in all cases: Nanosyn kinase profiling
# Type in all cases: biochemical
# Settings in all cases: read-out: Percentage inhibition; for inhibition at 0.1 µM: 0.1 µM inhibitor; for inhibition at 1 µM: 1 µM inhibitor
# [1] = biological target: T1, ARK5 (Homo sapiens, UniProt O60285)
# T1 construct: purchased Nanosyn (enzymatic panel); SGC in-house recombinant human kinases (DSF panel); Invitrogen (ALK1-6)
# T1 sequence (O60285 1-661): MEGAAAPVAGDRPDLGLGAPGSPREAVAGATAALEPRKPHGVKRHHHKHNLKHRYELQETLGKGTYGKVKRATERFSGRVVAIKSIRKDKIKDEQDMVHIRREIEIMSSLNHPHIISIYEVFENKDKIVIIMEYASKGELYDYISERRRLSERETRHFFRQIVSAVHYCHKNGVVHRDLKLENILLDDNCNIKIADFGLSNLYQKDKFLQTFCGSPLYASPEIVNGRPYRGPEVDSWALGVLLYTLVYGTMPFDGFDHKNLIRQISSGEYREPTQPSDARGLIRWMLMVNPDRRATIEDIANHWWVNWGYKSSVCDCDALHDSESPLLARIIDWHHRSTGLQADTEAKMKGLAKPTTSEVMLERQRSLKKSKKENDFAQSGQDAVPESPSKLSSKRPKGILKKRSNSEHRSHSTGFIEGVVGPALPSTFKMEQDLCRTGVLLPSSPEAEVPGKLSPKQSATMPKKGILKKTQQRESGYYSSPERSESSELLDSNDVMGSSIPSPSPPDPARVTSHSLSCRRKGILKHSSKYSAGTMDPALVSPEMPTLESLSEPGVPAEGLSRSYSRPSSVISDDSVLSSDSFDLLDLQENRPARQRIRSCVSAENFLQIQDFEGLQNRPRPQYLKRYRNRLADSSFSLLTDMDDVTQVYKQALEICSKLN
# Method in brief: (§1)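 Percent inhibition of each kinase was measured with the inhibitor at 0.1 µM and at 1 µM, as part of a 200-kinase human selectivity panel.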
# [2] = biological target: T2, DYRK2 (Homo sapiens, UniProt Q92630)
# T2 construct: purchased Nanosyn (enzymatic panel); SGC in-house recombinant human kinases (DSF panel); Invitrogen (ALK1-6)
# T2 sequence (Q92630 1-601): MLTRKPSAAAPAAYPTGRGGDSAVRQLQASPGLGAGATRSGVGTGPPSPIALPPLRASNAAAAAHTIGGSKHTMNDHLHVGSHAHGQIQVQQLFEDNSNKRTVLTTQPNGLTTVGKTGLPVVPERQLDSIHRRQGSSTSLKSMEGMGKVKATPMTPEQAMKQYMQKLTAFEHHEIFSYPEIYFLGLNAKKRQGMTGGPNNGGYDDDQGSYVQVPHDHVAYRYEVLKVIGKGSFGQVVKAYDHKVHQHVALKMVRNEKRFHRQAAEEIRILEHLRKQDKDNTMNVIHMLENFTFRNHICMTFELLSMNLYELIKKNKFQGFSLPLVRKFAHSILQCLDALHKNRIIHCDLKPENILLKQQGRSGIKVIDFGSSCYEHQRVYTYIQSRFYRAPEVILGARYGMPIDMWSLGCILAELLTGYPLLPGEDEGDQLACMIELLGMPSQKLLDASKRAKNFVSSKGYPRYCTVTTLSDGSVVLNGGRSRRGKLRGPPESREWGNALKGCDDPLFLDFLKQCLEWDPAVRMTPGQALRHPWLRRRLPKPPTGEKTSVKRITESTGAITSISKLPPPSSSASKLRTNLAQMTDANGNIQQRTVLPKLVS
# Method in brief: as §1
# [3] = biological target: T3, EGFR (Homo sapiens, UniProt P00533)
# T3 construct: purchased Nanosyn (enzymatic panel); SGC in-house recombinant human kinases (DSF panel); Invitrogen (ALK1-6)
# T3 sequence (P00533 25-1210): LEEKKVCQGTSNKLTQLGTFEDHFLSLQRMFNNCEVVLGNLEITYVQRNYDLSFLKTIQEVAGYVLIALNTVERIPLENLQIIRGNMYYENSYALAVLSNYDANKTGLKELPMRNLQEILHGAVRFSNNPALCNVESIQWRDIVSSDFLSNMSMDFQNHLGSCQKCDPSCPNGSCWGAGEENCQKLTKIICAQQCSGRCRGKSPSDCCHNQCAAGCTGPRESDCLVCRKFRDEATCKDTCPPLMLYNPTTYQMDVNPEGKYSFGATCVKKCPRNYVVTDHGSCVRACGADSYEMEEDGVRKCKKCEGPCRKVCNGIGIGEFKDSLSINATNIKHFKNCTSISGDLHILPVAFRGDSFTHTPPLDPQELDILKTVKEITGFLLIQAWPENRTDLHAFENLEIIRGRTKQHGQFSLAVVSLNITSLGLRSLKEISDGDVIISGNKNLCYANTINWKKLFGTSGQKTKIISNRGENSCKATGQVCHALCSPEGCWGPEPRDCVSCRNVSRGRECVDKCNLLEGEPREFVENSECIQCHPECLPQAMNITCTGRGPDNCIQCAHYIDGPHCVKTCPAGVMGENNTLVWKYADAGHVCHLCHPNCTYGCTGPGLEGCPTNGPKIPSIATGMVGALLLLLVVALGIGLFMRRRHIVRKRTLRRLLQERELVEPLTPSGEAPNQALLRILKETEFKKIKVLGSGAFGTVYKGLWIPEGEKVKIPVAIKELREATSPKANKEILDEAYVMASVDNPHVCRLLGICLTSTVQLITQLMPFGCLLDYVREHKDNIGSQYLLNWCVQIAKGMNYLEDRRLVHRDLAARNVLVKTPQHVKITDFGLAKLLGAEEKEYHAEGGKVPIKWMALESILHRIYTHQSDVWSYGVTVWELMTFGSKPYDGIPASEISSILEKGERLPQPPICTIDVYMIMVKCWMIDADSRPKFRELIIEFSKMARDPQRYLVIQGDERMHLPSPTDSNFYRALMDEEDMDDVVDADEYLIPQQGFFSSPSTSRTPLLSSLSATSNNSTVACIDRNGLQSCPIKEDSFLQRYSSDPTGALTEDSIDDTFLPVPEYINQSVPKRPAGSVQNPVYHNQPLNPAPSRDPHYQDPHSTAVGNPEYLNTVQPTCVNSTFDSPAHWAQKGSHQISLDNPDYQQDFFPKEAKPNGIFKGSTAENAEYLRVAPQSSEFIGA
# Method in brief: as §1
# [4] = biological target: T4, ERBB2 (Homo sapiens, UniProt P04626)
# T4 construct: purchased Nanosyn (enzymatic panel); SGC in-house recombinant human kinases (DSF panel); Invitrogen (ALK1-6)
# T4 sequence (P04626 23-1255): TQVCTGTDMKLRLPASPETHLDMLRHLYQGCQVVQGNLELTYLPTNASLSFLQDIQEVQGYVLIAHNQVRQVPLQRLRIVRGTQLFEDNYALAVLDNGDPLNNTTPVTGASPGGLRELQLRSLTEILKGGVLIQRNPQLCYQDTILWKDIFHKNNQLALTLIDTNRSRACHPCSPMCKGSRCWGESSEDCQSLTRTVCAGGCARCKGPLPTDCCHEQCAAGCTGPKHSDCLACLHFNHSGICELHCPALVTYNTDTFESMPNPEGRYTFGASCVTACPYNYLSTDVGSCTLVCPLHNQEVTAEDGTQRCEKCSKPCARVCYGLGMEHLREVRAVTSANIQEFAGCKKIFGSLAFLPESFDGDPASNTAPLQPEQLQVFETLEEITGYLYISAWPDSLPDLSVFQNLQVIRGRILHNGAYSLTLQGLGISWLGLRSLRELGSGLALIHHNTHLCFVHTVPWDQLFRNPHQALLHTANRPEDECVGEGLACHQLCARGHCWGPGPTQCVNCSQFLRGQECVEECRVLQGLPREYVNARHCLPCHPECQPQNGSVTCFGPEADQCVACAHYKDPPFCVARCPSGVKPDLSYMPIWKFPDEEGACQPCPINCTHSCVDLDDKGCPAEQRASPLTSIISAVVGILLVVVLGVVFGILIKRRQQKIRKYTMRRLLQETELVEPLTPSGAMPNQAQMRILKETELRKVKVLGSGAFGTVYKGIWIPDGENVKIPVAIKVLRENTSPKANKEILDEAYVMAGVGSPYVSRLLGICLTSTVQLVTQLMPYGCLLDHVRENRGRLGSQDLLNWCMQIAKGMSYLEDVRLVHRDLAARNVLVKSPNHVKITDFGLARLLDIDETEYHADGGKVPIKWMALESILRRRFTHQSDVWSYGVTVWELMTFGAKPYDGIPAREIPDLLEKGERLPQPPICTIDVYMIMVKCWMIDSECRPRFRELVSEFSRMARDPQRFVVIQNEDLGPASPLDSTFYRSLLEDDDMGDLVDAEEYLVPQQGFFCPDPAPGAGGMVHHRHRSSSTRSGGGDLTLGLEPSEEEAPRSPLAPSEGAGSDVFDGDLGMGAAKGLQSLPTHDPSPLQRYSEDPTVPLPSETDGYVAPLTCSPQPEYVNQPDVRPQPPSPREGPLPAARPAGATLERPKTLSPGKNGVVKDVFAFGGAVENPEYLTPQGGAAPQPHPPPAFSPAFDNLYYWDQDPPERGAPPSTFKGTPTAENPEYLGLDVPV
# Method in brief: as §1
# [5] = biological target: T5, INSR (Homo sapiens, UniProt P06213)
# T5 construct: purchased Nanosyn (enzymatic panel); SGC in-house recombinant human kinases (DSF panel); Invitrogen (ALK1-6)
# T5 sequence (P06213 28-1382): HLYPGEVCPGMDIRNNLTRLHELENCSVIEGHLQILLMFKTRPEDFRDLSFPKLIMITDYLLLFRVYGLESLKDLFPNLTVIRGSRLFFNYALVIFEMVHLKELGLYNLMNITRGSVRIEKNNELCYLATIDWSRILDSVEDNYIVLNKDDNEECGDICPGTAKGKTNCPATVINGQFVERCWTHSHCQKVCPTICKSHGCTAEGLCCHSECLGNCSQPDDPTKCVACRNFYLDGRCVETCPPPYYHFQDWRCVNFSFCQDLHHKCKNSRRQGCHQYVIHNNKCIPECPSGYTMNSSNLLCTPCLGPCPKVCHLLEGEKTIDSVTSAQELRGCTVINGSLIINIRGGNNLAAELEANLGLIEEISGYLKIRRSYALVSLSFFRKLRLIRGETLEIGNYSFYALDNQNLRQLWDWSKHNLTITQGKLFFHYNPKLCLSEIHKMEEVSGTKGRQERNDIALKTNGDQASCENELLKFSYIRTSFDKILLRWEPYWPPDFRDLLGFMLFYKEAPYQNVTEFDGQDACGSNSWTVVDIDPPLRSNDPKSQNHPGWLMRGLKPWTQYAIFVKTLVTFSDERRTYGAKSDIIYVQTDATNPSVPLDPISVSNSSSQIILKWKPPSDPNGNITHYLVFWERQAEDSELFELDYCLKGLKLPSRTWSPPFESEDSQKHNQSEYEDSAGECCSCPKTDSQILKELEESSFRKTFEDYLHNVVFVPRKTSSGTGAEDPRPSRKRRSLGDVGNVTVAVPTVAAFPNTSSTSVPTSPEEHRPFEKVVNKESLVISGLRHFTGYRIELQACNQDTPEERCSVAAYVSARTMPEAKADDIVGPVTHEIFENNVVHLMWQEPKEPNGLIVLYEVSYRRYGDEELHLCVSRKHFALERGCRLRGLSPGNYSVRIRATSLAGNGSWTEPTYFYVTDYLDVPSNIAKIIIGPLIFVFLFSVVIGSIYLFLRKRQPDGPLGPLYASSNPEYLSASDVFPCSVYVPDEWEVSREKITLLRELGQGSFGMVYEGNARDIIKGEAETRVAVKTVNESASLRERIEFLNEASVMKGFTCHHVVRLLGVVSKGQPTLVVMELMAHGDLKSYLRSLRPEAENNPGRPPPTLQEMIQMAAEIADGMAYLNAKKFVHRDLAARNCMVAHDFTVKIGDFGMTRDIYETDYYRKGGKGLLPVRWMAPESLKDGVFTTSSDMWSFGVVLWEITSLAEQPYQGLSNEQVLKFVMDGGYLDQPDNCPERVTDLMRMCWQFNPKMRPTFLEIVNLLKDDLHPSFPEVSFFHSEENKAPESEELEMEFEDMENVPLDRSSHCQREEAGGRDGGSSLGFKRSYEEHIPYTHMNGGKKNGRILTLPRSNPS
# Method in brief: as §1
# [6] = biological target: T6, NEK6 (Homo sapiens, UniProt Q9HC98)
# T6 construct: purchased Nanosyn (enzymatic panel); SGC in-house recombinant human kinases (DSF panel); Invitrogen (ALK1-6)
# T6 sequence (Q9HC98 whole entry): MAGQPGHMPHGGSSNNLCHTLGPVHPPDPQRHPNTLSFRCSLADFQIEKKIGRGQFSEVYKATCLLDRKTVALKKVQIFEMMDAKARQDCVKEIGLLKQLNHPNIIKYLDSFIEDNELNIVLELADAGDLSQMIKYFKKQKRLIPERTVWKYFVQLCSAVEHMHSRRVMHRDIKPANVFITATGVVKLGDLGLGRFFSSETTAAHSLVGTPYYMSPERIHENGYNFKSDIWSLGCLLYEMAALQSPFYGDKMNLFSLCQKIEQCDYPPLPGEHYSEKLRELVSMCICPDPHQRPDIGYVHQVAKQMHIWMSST
# Method in brief: as §1
# [7] = biological target: T7, PI3-K-α (Homo sapiens, UniProt P42336)
# T7 construct: purchased Nanosyn (enzymatic panel); SGC in-house recombinant human kinases (DSF panel); Invitrogen (ALK1-6)
# Method in brief: as §1
# [8] = biological target: T8, PI3-K-δ (Homo sapiens, UniProt O00329)
# T8 construct: purchased Nanosyn (enzymatic panel); SGC in-house recombinant human kinases (DSF panel); Invitrogen (ALK1-6)
# Method in brief: as §1
# [9] = biological target: T9, PTK5 (Homo sapiens, UniProt P42685)
# T9 construct: purchased Nanosyn (enzymatic panel); SGC in-house recombinant human kinases (DSF panel); Invitrogen (ALK1-6)
# T9 sequence (P42685 whole entry): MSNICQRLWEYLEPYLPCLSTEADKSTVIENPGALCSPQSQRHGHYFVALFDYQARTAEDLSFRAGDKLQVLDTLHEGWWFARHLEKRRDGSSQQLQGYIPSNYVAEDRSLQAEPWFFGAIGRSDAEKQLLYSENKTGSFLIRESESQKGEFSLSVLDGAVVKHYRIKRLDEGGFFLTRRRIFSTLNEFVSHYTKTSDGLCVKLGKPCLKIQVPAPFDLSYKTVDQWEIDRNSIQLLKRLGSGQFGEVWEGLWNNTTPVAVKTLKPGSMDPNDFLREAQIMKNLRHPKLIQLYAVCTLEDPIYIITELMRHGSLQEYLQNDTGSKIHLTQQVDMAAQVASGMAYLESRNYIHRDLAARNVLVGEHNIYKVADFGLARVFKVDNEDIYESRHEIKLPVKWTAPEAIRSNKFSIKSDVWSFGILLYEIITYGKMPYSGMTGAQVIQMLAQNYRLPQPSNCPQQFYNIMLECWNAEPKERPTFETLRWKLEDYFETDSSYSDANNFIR
# Method in brief: as §1
# [10] = biological target: T10, TTK (Homo sapiens, UniProt P33981)
# T10 construct: purchased Nanosyn (enzymatic panel); SGC in-house recombinant human kinases (DSF panel); Invitrogen (ALK1-6)
# T10 sequence (P33981 1-857): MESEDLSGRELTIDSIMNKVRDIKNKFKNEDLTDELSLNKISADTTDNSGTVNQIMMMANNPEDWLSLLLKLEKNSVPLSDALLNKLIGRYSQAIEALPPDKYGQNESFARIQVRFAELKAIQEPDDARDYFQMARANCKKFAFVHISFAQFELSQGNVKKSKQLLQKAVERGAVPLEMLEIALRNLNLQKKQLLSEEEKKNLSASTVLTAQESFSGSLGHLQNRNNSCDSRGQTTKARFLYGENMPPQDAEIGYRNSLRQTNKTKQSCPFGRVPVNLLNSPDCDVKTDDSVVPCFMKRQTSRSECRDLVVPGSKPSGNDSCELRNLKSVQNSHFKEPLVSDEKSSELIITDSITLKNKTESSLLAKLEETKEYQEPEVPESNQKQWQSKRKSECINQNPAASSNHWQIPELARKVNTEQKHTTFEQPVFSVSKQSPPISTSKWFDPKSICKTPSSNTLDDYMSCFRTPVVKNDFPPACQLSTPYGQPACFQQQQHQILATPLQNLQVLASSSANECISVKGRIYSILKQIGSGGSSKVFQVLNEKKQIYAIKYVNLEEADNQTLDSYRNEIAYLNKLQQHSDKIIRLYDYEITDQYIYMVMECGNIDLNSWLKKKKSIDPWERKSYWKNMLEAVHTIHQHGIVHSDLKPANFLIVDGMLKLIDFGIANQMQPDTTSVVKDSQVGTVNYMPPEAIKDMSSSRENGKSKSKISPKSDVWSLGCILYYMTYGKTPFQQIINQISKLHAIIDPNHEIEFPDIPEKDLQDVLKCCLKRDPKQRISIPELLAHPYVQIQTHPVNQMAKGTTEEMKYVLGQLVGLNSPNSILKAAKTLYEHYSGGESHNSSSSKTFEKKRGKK
# Method in brief: as §1
Structure (SMILES),inhibition at 0.1 µM [1],inhibition at 1 µM [1],inhibition at 0.1 µM [2],inhibition at 1 µM [2],inhibition at 0.1 µM [3],inhibition at 1 µM [3],inhibition at 0.1 µM [4],inhibition at 1 µM [4],inhibition at 0.1 µM [5],inhibition at 1 µM [5],inhibition at 0.1 µM [6],inhibition at 1 µM [6],inhibition at 0.1 µM [7],inhibition at 1 µM [7],inhibition at 0.1 µM [8],inhibition at 1 µM [8],inhibition at 0.1 µM [9],inhibition at 1 µM [9],inhibition at 0.1 µM [10],inhibition at 1 µM [10]
"COc1cc(-c2cc(-c3cccc(O)c3)cnc2N)cc(OC)c1OC [K02288, 3-[6-amino-5-(3,4,5-trimethoxy-phenyl)-pyridin-3-yl]-phenol]",1.1%,4.1%,-1%,-3%,2.4%,12%,-5%,-3%,-4%,0.7%,-2%,-1%,2.6%,2%,0.8%,2.5%,2.2%,22%,-4%,-1%
c1ccc2c(-c3cnn4cc(-c5ccc(N6CCNCC6)cc5)cnc34)ccnc2c1 [LDN-193189],16%,56%,2.3%,0.2%,1.5%,4.8%,2.1%,2.1%,3.8%,4.5%,2.3%,-1%,2.1%,1.5%,-1%,10%,4.1%,14%,4.5%,7.6%
